In patent publication EP4818163A1, “POLYCYCLIC COMPOUND AND USE THEREOF” (Zhejiang Jingke Pharmaceuticals Co., Ltd., priority 2023, dated 2025):

How the values were obtained:
c-Kit kinase = c-Kit kinase (Homo sapiens, UniProt P10721); test: Enzyme activity assay (c-Kit kinase); assay type: biochemical
Protocol: Biological activity tests were performed on partial compounds synthesized in the above examples and comparative examples below. […]

[1] = Brain-penetrating pharmacokinetic test; assay type: in vivo, Sprague-Dawley (SD) rat; conditions: SD rats, p.o., 10 mg/kg, single administration; for Kp: Sprague-Dawley, rat, brain tissue / plasma, po, read-out: Total drug brain-to-plasma ratio (B/P)
Protocol: Administration vehicle: 5% DMSO+10% Solutol HS15+85% normal saline
Formulation preparation process: an appropriate amount of powder was weighed, an appropriate volume of DMSO was added, and the mixture was mixed by vortexing. Subsequently, an appropriate volume of Solutol solution was added and vortexed, then normal saline was added, and the mixture was subjected to vortexing and ultrasonic processing to form a homogeneous and clear formulation solution.
The experimental animals were fed in an animal room. The animal room was equipped with an air-conditioning system, with adequate ventilation, an indoor temperature was maintained at 20-26°C, and a relative humidity was maintained at 40%-70%. Artificial lighting was applied in the animal room, with a 12-hour light/dark cycle (except for working lights turned on during experimental operations and cleaning). The experimental animals had free access to food and water.
The purchased animals were fed normally for at least 3 days, rats with healthy physical conditions were included in the experiment, and each rat was marked with a tail number. Animals in an oral administration group were fasted overnight one day before drug administration, and fed 4 hours after drug administration, with free access to water.
• Administration route: intragastric administration (p.o.) • Administration concentration: 1 mg/mL • Administration dose: 10 mg/kg • Administration volume: 10 mL/kg • Administration frequency: single administration
Before drug administration, a state of the administration formulation was examined, the homogeneity of the formulation was ensured by vortexing, stirring or shaking, and a theoretical administration volume for each SD rat in every group was calculated according to the following formula. Theoretical; administration volume(mL) = (Dose (mg⋅kg^−1))/(Formulation; concentration(mg⋅mL^−1)) × Body; weight(kg) [formula]
The rats were sampled at 1 hour, 2 hours, 4 hours, 6 hours, 8 hours and 24 hours after drug administration.
Plasma: at each time point, 0.25 mL of whole blood was collected from the jugular vein and transferred into a test tube containing an anticoagulant EDTA-K2 (7 µL, 10% EDTA-K2 solution), placed on wet ice, and centrifuged within 1 hour (2,000 g, 2-8°C, 10 minutes), and then, the plasma was taken. The plasma was stored in a pre-chilled centrifuge tube, rapidly frozen in dry ice, and then stored in an ultra-low temperature refrigerator at -60°C or lower until LC-MS/MS analysis.
Cerebrospinal fluid: the rats were euthanized via a carbon dioxide process, and approximately 60 µL of cerebrospinal fluid was collected by puncture. 1 mL syringe was used, with the bevel of the needle facing upward, the needle tip was inserted into the subarachnoid space in a nearly horizontal position, then the needle was fixed, and the cerebrospinal fluid was slowly aspirated. The collected samples were frozen on dry ice within 30 minutes, and then transferred to an environment at -90°C to -60°C.
Brain tissue: cardiac perfusion was performed first, and then the brain tissue was isolated. Under deep terminal anesthesia, approximately 80 mL of normal saline was used for cardiac perfusion, and residual blood in the brain tissue was flushed out of cerebral circulation. The isolated brain tissue was gently rinsed once with ice-cold normal saline, excess water was removed, weighed, and then transferred to a frozen storage environment at -90°C to -60°C.
A quantitative detection method for the test compound was established by using a Shimadzu liquid chromatography system and a Triple Quad TM 6500+AB mass spectrometer. A concentration of a parent drug in a sample was analyzed. Quality control samples were used for variation control over analysis results, and the accuracy of the quality control samples should fall within the range of 80%-120%.
Pharmacokinetic parameters: Tmax, Cmax, AUC (0-t), AUC (0-∞), T1/2, MRT (0-∞), and the like were calculated by using winnonlin Phoenix 8.1.0.3530. […]

[2] = Preclinical pharmacokinetic test in rats; assay type: in vivo; conditions: rat, po; male SD rats, intragastric administration (p.o.), 10 mg/kg, plasma
Protocol: Healthy adult SD rats, male, aged 6-8 weeks, with a body weight of 200-300 g, purchased from Vital River Company; EDTA-Na2 anticoagulant; and analytical balance, animal weighing scale, magnetic stirrer, refrigerated centrifuge, single-channel manual pipette, and the like.
• 1. Drug preparation: approximately 10 mg of the test sample was accurately weighed and dissolved in 5% DMSO (after conversion), and then 10% solutol HS-15 and 85% normal saline were added. The mixture was subjected to ultrasonic processing and mixed by vortexing to obtain a solution at a concentration of 1 mg/mL, which was freshly prepared before use. 0.2 mL of the sample was transferred into a 1.5 mL centrifuge tube and stored at -80°C for administration solution concentration analysis. • 2. Animal preparation: the rats were fed in rat cages, and fasted (for at least 10 hours) with free access to water one day before the experiment. On the day of experiment, the rats were weighed and marked at the tail respectively. Blank blood samples were collected respectively before drug administration. The blood samples were collected via the tail vein. • 3. Drug administration: • administration route: intragastric administration (p.o.); • administration dose: 10 mg/kg; • administration volume: 10 mL/kg; and • operation procedure: the rat was restrained in an upright position with a left hand wearing bite-resistant gloves, a 16-gauge gavage needle was inserted through the oral cavity into the pharynx and advanced without obvious resistance, and then the drug was then injected into the stomach. • 4. Sample collection: whole blood (0.1 mL) was collected from each test animal before drug administration and at 0.5 hours, 1 hour, 2 hours, 4 hours, 6 hours, 8 hours, 12 hours and 24 hours after drug administration, transferred into EDTA-Na2 anticoagulant tubes, mixed evenly by inverting the tubes 3-4 times, and then centrifuged at 10000 g and 4°C for 5 minutes to separate plasma. The obtained plasma samples were stored at -80°C for later analysis. The blood samples were collected via the tail vein.
Specific operation: the rat was secured in a restrainer to fully expose its tail, the tail was wiped with alcohol to make the surface skin absorb the alcohol, so as to induce obvious venous dilation. A suitable vein was selected from two sides, and the needle was inserted at approximately one-third of the distance from the tail tip. An insulin syringe was used as the injection syringe, the needle was inserted with the bevel facing upward, and the needle was immediately adjusted to a parallel position after piercing the skin. Slight sliding resistance of the needle inside the vessel and blood reflux in the injection syringe indicated successful venous access. Approximately 0.1-0.2 mL of whole blood was drawn. Gentle compression was applied for hemostasis after needle removal.
Preparation of standard curve sample: 25 µL of blank rat plasma was transferred into a centrifuge tube respectively, 25 µL of prepared serial standard solution (prepared in methanol) was added, and then 200 µL of internal standard solution (prepared in methanol) was added. The mixture was mixed by vortexing for 2 minutes, and centrifuged at 10000 g and 4°C for 10 minutes.
Treatment of the unknown plasma sample: 25 µL of drug-containing rat plasma was collected respectively, and then 25 µL of methanol and 200 µL of internal standard solution were added sequentially. The mixture was mixed by vortexing for 2 minutes, and centrifuged at 10000 g and 4°C for 10 minutes. The supernatant was collected for LC/MS/MS detection.
A quantitative detection method for the test compound was established by using a Shimadzu liquid chromatography system and a Triple Quad TM 6500+AB mass spectrometer. A concentration of a parent drug in plasma was determined. Plasma concentration-time curves were plotted, and major pharmacokinetic parameters were calculated via a non-compartmental model in winnonlin Phoenix software. […]

Chain of c-Kit kinase (P10721 26-976): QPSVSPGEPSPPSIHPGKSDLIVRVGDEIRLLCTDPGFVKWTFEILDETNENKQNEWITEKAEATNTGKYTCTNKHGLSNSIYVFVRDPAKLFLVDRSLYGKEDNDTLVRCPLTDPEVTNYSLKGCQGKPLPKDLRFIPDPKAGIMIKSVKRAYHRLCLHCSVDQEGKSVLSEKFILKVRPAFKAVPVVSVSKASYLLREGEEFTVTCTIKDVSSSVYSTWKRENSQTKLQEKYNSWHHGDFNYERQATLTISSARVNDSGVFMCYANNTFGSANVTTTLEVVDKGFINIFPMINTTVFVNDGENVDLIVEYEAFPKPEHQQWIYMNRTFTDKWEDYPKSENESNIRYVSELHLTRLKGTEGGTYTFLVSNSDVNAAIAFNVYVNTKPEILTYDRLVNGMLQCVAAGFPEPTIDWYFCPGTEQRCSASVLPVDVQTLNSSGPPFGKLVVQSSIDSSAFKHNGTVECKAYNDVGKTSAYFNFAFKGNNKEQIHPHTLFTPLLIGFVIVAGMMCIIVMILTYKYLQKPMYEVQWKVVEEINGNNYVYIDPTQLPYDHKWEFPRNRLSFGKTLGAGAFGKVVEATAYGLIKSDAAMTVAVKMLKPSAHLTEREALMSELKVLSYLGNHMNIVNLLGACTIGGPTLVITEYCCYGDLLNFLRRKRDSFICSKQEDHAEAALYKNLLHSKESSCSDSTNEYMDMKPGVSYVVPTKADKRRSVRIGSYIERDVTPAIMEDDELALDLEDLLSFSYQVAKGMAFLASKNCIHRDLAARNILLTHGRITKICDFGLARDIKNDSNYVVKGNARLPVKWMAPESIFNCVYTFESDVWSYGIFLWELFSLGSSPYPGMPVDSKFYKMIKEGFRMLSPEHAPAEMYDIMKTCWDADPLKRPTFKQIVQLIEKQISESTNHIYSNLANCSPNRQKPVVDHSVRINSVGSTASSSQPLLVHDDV

| SMILES | IC50 (c-Kit kinase) [nM] | Total drug concentration in brain tissue [1] [ng·h/mL] | Total drug concentration in plasma [1] [ng·h/mL] | Kp [1] | AUC [2] [ng·h/mL] | Cmax [2] [ng/mL] |
| --- | --- | --- | --- | --- | --- | --- |
| [2H]C([2H])(c1ccc(C(=O)Nc2ccc(C(F)(F)F)c(Nc3nc(-c4cccnc4)cs3)c2)cc1)N1CCN(C)CC1 [Compound T-12] | 2.13 | – | – | – | – | – |
| [2H]C([2H])([2H])N1CCN(C([2H])([2H])c2ccc(C(=O)Nc3ccc(C)c(Nc4nc(-c5cccnc5)cs4)c3)c(F)c2)CC1 [Compound T-08] | 3.89 | 1798.12 | 3269.32 | 0.55 | – | – |
| Cc1ccc(NC(=O)c2ccc(CN3CCN(C)CC3)cc2)cc1Nc1nc(-c2cccnc2)cs1 [Masitinib, reference compound] | – | 356.98 | 1771.48 | 0.2 | 1770 | 321 |
| [2H]C([2H])(c1ccc(C(=O)Nc2ccc(C)c(Nc3nc(-c4cccnc4)cs3)c2)cc1)N1CCN(C)CC1 [Compound T-02] | – | – | – | – | 2370 | 397 |
| [2H]C([2H])([2H])N1CCN(C([2H])([2H])c2ccc(C(=O)Nc3ccc(C(F)(F)F)c(Nc4nc(-c5cccnc5)cs4)c3)c(F)c2)CC1 [Compound T-18] | 3.12 | – | – | – | 4000 | 501 |
| [2H]C([2H])(c1ccc(C(=O)Nc2ccc(C(F)(F)F)c(Nc3nc(-c4ccc(F)nc4)cs3)c2)cc1)N1CCN(C)CC1 [Compound T-11] | 3.55 | – | – | – | – | – |
| [2H]C([2H])([2H])N1CCN(C([2H])([2H])c2ccc(C(=O)Nc3ccc(C)c(Nc4nc(-c5cccnc5)cs4)c3)cc2)CC1 [Compound T-04] | – | – | – | – | 3260 | 486 |
| [2H]C([2H])([2H])N1CCN(C([2H])([2H])c2ccc(C(=O)Nc3ccc(C(F)(F)F)c(Nc4nc(-c5cccnc5)cs4)c3)cc2)CC1 [Compound T-15] | 3.56 | – | – | – | – | – |

The next lines start with the values.

| IC50 (c-Kit kinase) [nM] | Total drug concentration in brain tissue [1] [ng·h/mL] | Total drug concentration in plasma [1] [ng·h/mL] | Kp [1] | AUC [2] [ng·h/mL] | Cmax [2] [ng/mL] | SMILES |
| --- | --- | --- | --- | --- | --- | --- |
| 2.11 | – | – | – | – | – | [2H]C([2H])([2H])N1CCN(Cc2ccc(C(=O)Nc3ccc(C(F)(F)F)c(Nc4nc(-c5ccc(F)nc5)cs4)c3)c(F)c2)CC1 [Compound T-19] |
| 1.36 | 2763.22 | 3891.87 | 0.71 | – | – | [2H]C([2H])(c1ccc(C(=O)Nc2ccc(C(F)(F)F)c(Nc3nc(-c4cccnc4)cs3)c2)c(F)c1)N1CCN(C)CC1 [Compound T-21] |
| 1.35 | – | – | – | 4290 | 533 | [2H]C([2H])([2H])N1CCN(C([2H])([2H])c2ccc(C(=O)Nc3ccc(C(F)(F)F)c(Nc4nc(-c5ccc(F)nc5)cs4)c3)c(F)c2)CC1 [Compound T-17] |
| 1.67 | 1370.43 | 2687.12 | 0.51 | 2690 | 419 | [2H]C([2H])([2H])N1CCN(Cc2ccc(C(=O)Nc3ccc(C)c(Nc4nc(-c5cccnc5)cs4)c3)c(F)c2)CC1 [Compound T-01] |
| 2.1 | 3092.40 | 4123.20 | 0.75 | – | – | [2H]C([2H])([2H])N1CCN(Cc2ccc(C(=O)Nc3ccc(C(F)(F)F)c(Nc4nc(-c5cccnc5)cs4)c3)c(F)c2)CC1 [Compound T-20] |
| 2.12 | 3129.79 | 4012.56 | 0.78 | 4010 | 516 | [2H]C([2H])(c1ccc(C(=O)Nc2ccc(C(F)(F)F)c(Nc3nc(-c4ccc(F)nc4)cs3)c2)c(F)c1)N1CCN(C)CC1 [Compound T-16] |
